Earlier results as cited in patent US11034961B2 (priority 2015, dated 2021).

Tests used:
[1] = infusion into the scala tympani
[2] = administered by IV

Row | Structure (SMILES) | Meniere's disease symptoms [1] | sufferers in whom the noise associated with tinnitus is reduced or eliminated [2]
1 | Cc1ccccc1C(=O)Nc1ccc(C(=O)N2CCCC(N(C)C)c3ccccc32)cc1 (centres unmarked) [OPC-31260] | marked reduction | 
2 | CCN(CC)CC(=O)Nc1c(C)cccc1C [Lidocaine] |  | 60-80%
